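The concentration for 50% growth inhibition is given as GI50. At the TGI there is no net growth.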
What was measured:
Assay in all cases: NCI tumour cell line growth inhibition, 384-well format
OVCAR-8 ovarian = tested on: OVCAR-8 ovarian
SK-MEL-28 melanoma = tested on: SK-MEL-28 melanoma
CAKI-1 renal = tested on: CAKI-1 renal
HOP-62 NSCLC = tested on: HOP-62 NSCLC
SNB-75 CNS = tested on: SNB-75 CNS
SW-620 colon = tested on: SW-620 colon
UACC-62 melanoma = tested on: UACC-62 melanoma
A549 NSCLC = tested on: A549 NSCLC
SK-OV-3 ovarian = tested on: SK-OV-3 ovarian
HOP-92 NSCLC = tested on: HOP-92 NSCLC
MOLT-4 leukemia = tested on: MOLT-4 leukemia
NCI-H460 NSCLC = tested on: NCI-H460 NSCLC
MCF7 breast = tested on: MCF7 breast
TK-10 renal = tested on: TK-10 renal
SK-MEL-2 melanoma = tested on: SK-MEL-2 melanoma
SF-295 CNS = tested on: SF-295 CNS
RXF 393 renal = tested on: RXF 393 renal
HS 578T breast = tested on: HS 578T breast
NCI-H322M lung = tested on: NCI-H322M lung
MALME-3M melanoma = tested on: MALME-3M melanoma
786-0 renal = tested on: 786-0 renal
KM12 colon = tested on: KM12 colon
HCC-2998 colon = tested on: HCC-2998 colon
PC-3 prostate = tested on: PC-3 prostate
NCI-H23 lung = tested on: NCI-H23 lung
MDA-MB-468 breast = tested on: MDA-MB-468 breast
A498 renal = tested on: A498 renal
HL-60(TB) leukemia = tested on: HL-60(TB) leukemia
CCRF-CEM leukemia = tested on: CCRF-CEM leukemia
K-562 leukemia = tested on: K-562 leukemia
ACHN renal = tested on: ACHN renal
NCI-H522 lung = tested on: NCI-H522 lung
U251 glioblastoma = tested on: U251 glioblastoma
DU-145 prostate = tested on: DU-145 prostate
HCT-116 colon = tested on: HCT-116 colon
M14 melanoma = tested on: M14 melanoma
MDA-MB-435 melanoma = tested on: MDA-MB-435 melanoma
SF-539 CNS = tested on: SF-539 CNS
MDA-MB-231 breast = tested on: MDA-MB-231 breast
SF-268 CNS = tested on: SF-268 CNS
NCI-H226 lung = tested on: NCI-H226 lung
HCT-15 colon = tested on: HCT-15 colon
OVCAR-3 ovarian = tested on: OVCAR-3 ovarian
UACC-257 melanoma = tested on: UACC-257 melanoma
COLO 205 colon = tested on: COLO 205 colon
T-47D breast = tested on: T-47D breast
RPMI-8226 leukemia = tested on: RPMI-8226 leukemia
OVCAR-5 ovarian = tested on: OVCAR-5 ovarian
SK-MEL-5 melanoma = tested on: SK-MEL-5 melanoma
EKVX NSCLC = tested on: EKVX NSCLC
SR leukemia = tested on: SR leukemia
NCI/ADR-RES ovarian = tested on: NCI/ADR-RES ovarian
OVCAR-4 ovarian = tested on: OVCAR-4 ovarian
BT-549 breast = tested on: BT-549 breast
IGROV1 ovarian = tested on: IGROV1 ovarian
SNB-19 CNS = tested on: SNB-19 CNS
SN12C renal = tested on: SN12C renal
LOX IMVI melanoma = tested on: LOX IMVI melanoma
HT29 colon = tested on: HT29 colon

How did the GI50 (OVCAR-8 ovarian) turn out when `C[C@@H]1COCCN1c1cc(C2(S(C)(=N)=O)CC2)nc(-c2ccnc3[nH]ccc23)n1` (stereo partly drawn) was run?
Its GI50 is 5.49 µM.

What about the TGI (OVCAR-8 ovarian) of the same compound?
Its TGI is 18 µM.

And the GI50 (SK-MEL-28 melanoma)?
Its GI50 is 11.6 µM.

And the TGI (SK-MEL-28 melanoma)?
The TGI was 24.8 µM.

And the GI50 (CAKI-1 renal)?
The GI50 was 2.84 µM.

And the TGI (CAKI-1 renal)?
The TGI was greater than 40 µM.

What about the GI50 (HOP-62 NSCLC) of the same compound?
Its GI50 is 1.34 µM.

And the TGI (HOP-62 NSCLC)?
The TGI was 3.58 µM.

What about the GI50 (SNB-75 CNS) of the same compound?
The GI50 was 4.52 µM.

What about the TGI (SNB-75 CNS) of the same compound?
Its TGI is 14.3 µM.

And the GI50 (SW-620 colon)?
The GI50 was 2.77 µM.

And the TGI (SW-620 colon)?
Its TGI is 50.4 µM.

And the GI50 (UACC-62 melanoma)?
Its GI50 is 3.01 µM.

What about the TGI (UACC-62 melanoma) of the same compound?
Its TGI is 14.4 µM.

What about the GI50 (A549 NSCLC) of the same compound?
Its GI50 is 3.54 µM.

And the TGI (A549 NSCLC)?
Its TGI is greater than 44.4 µM.

And the GI50 (SK-OV-3 ovarian)?
Its GI50 is 1.78 µM.

What about the TGI (SK-OV-3 ovarian) of the same compound?
The TGI was 18.9 µM.

What about the GI50 (HOP-92 NSCLC) of the same compound?
Its GI50 is 2.04 µM.

What about the TGI (HOP-92 NSCLC) of the same compound?
The TGI was greater than 28.4 µM.

What about the GI50 (MOLT-4 leukemia) of the same compound?
The GI50 was 1.02 µM.

What about the TGI (MOLT-4 leukemia) of the same compound?
Its TGI is 2.26 µM.

What about the GI50 (NCI-H460 NSCLC) of the same compound?
The GI50 was 0.541 µM.

What about the TGI (NCI-H460 NSCLC) of the same compound?
Its TGI is 4.87 µM.

And the GI50 (MCF7 breast)?
The GI50 was 0.615 µM.

What about the TGI (MCF7 breast) of the same compound?
The TGI was greater than 39.4 µM.

What about the GI50 (TK-10 renal) of the same compound?
Its GI50 is 0.756 µM.

What about the TGI (TK-10 renal) of the same compound?
The TGI was 3.58 µM.

And the GI50 (SK-MEL-2 melanoma)?
Its GI50 is 0.685 µM.

And the TGI (SK-MEL-2 melanoma)?
The TGI was 2.46 µM.

And the GI50 (SF-295 CNS)?
Its GI50 is 2.47 µM.

And the TGI (SF-295 CNS)?
Its TGI is 9.13 µM.

What about the GI50 (RXF 393 renal) of the same compound?
The GI50 was 2.67 µM.

What about the TGI (RXF 393 renal) of the same compound?
The TGI was 9.58 µM.

What about the GI50 (HS 578T breast) of the same compound?
The GI50 was 2.45 µM.

What about the TGI (HS 578T breast) of the same compound?
Its TGI is 12 µM.

What about the GI50 (NCI-H322M lung) of the same compound?
The GI50 was 1.11 µM.

What about the TGI (NCI-H322M lung) of the same compound?
The TGI was 5.59 µM.

What about the GI50 (MALME-3M melanoma) of the same compound?
Its GI50 is 5.67 µM.

What about the TGI (MALME-3M melanoma) of the same compound?
Its TGI is 16.8 µM.

What about the GI50 ([…]-0 renal) of the same compound?
Its GI50 is 1.82 µM.

What about the TGI (786-0 renal) of the same compound?
Its TGI is 5.72 µM.

What about the GI50 (KM12 colon) of the same compound?
Its GI50 is 1.63 µM.

And the TGI (KM12 colon)?
Its TGI is 22.3 µM.

And the GI50 (HCC-2998 colon)?
Its GI50 is 0.967 µM.

What about the TGI (HCC-2998 colon) of the same compound?
Its TGI is 3.58 µM.

What about the GI50 (PC-3 prostate) of the same compound?
The GI50 was 5.4 µM.

And the TGI (PC-3 prostate)?
The TGI was 31.3 µM.

And the GI50 (NCI-H23 lung)?
Its GI50 is 1.24 µM.

And the TGI (NCI-H23 lung)?
Its TGI is 3.26 µM.

What about the GI50 (MDA-MB-468 breast) of the same compound?
Its GI50 is 4.8 µM.

And the TGI (MDA-MB-468 breast)?
Its TGI is 18.6 µM.

And the GI50 (A498 renal)?
The GI50 was 0.637 µM.

And the TGI (A498 renal)?
Its TGI is 2.25 µM.

What about the GI50 (HL-60(TB) leukemia) of the same compound?
Its GI50 is 1 µM.

And the TGI (HL-60(TB) leukemia)?
Its TGI is 2.53 µM.

And the GI50 (CCRF-CEM leukemia)?
The GI50 was 0.638 µM.

And the TGI (CCRF-CEM leukemia)?
The TGI was 1.9 µM.

And the GI50 (K-562 leukemia)?
The GI50 was 2.35 µM.

And the TGI (K-562 leukemia)?
Its TGI is 6.73 µM.

And the GI50 (ACHN renal)?
Its GI50 is 0.71 µM.

And the TGI (ACHN renal)?
The TGI was 3.6 µM.

What about the GI50 (NCI-H522 lung) of the same compound?
Its GI50 is 9.39 µM.

And the TGI (NCI-H522 lung)?
The TGI was 25 µM.

And the GI50 (U251 glioblastoma)?
Its GI50 is 4.85 µM.

What about the TGI (U251 glioblastoma) of the same compound?
Its TGI is 29 µM.

And the GI50 (DU-145 prostate)?
Its GI50 is 3.17 µM.

And the TGI (DU-145 prostate)?
The TGI was 14 µM.

What about the GI50 (HCT-116 colon) of the same compound?
The GI50 was 2.54 µM.

And the TGI (HCT-116 colon)?
Its TGI is greater than 100 µM.

What about the GI50 (M14 melanoma) of the same compound?
The GI50 was 1.64 µM.

What about the TGI (M14 melanoma) of the same compound?
The TGI was 4.36 µM.

What about the GI50 (MDA-MB-435 melanoma) of the same compound?
Its GI50 is 3.71 µM.

What about the TGI (MDA-MB-435 melanoma) of the same compound?
The TGI was 11.3 µM.

And the GI50 (SF-539 CNS)?
Its GI50 is 1.29 µM.

What about the TGI (SF-539 CNS) of the same compound?
The TGI was 5.89 µM.

What about the GI50 (MDA-MB-231 breast) of the same compound?
The GI50 was 5.68 µM.

And the TGI (MDA-MB-231 breast)?
The TGI was greater than 44.6 µM.

And the GI50 (SF-268 CNS)?
Its GI50 is 6.17 µM.

What about the TGI (SF-268 CNS) of the same compound?
The TGI was 24 µM.

And the GI50 (NCI-H226 lung)?
The GI50 was 8.14 µM.

What about the TGI (NCI-H226 lung) of the same compound?
Its TGI is 46.2 µM.

What about the GI50 (HCT-15 colon) of the same compound?
Its GI50 is 2.21 µM.

What about the TGI (HCT-15 colon) of the same compound?
Its TGI is 13.7 µM.

And the GI50 (OVCAR-3 ovarian)?
Its GI50 is 3.03 µM.

And the TGI (OVCAR-3 ovarian)?
The TGI was 18.1 µM.

And the GI50 (UACC-257 melanoma)?
The GI50 was 13 µM.

And the TGI (UACC-257 melanoma)?
The TGI was 27.5 µM.

What about the GI50 (COLO 205 colon) of the same compound?
The GI50 was 9.75 µM.

And the TGI (COLO 205 colon)?
The TGI was 31.1 µM.

What about the GI50 (T-47D breast) of the same compound?
Its GI50 is 8.7 µM.

And the TGI (T-47D breast)?
Its TGI is greater than 43.1 µM.

What about the GI50 (RPMI-8226 leukemia) of the same compound?
The GI50 was 1.4 µM.

What about the TGI (RPMI-8226 leukemia) of the same compound?
Its TGI is 3.2 µM.

What about the GI50 (OVCAR-5 ovarian) of the same compound?
Its GI50 is 3.98 µM.

And the TGI (OVCAR-5 ovarian)?
The TGI was 22.4 µM.

And the GI50 (SK-MEL-5 melanoma)?
Its GI50 is 3.62 µM.

What about the TGI (SK-MEL-5 melanoma) of the same compound?
The TGI was 12.8 µM.

And the GI50 (EKVX NSCLC)?
The GI50 was 4.78 µM.

What about the TGI (EKVX NSCLC) of the same compound?
Its TGI is 19.9 µM.

What about the GI50 (SR leukemia) of the same compound?
Its GI50 is 0.153 µM.

What about the TGI (SR leukemia) of the same compound?
Its TGI is 0.45 µM.

What about the GI50 (NCI/ADR-RES ovarian) of the same compound?
The GI50 was 17 µM.

And the TGI (NCI/ADR-RES ovarian)?
Its TGI is 53.1 µM.

What about the GI50 (OVCAR-4 ovarian) of the same compound?
Its GI50 is 2 µM.

And the TGI (OVCAR-4 ovarian)?
The TGI was 9.93 µM.

And the GI50 (BT-549 breast)?
The GI50 was 1.93 µM.

And the TGI (BT-549 breast)?
The TGI was 9.01 µM.

And the GI50 (IGROV1 ovarian)?
Its GI50 is 2.67 µM.

And the TGI (IGROV1 ovarian)?
The TGI was 23 µM.

What about the GI50 (SNB-19 CNS) of the same compound?
The GI50 was 6.13 µM.

What about the TGI (SNB-19 CNS) of the same compound?
Its TGI is 57.3 µM.

What about the GI50 (SN12C renal) of the same compound?
Its GI50 is 2.96 µM.

And the TGI (SN12C renal)?
The TGI was 17.1 µM.

What about the GI50 (LOX IMVI melanoma) of the same compound?
The GI50 was 1.29 µM.

What about the TGI (LOX IMVI melanoma) of the same compound?
Its TGI is 8.31 µM.

What about the GI50 (HT29 colon) of the same compound?
Its GI50 is 3.55 µM.

And the TGI (HT29 colon)?
The TGI was 15.8 µM.

From PubChem BioAssay (NCI)
